Reference: patent publication US6410245B1, “Compositions and methods for detecting ligand-dependent nuclear receptor and coactivator interactions” (priority 1998, dated 2002)

Tested on: VP16TRα, Gal4-SRC-1, and UAS-TK-luciferase
Assay: positive two-hybrid system, luciferase reporter, VP16TRα and Gal4-SRC-1
Type: cell-based
Conditions: CHO cells triple transfected; dose-response curve; FIG. 8
From the text: “Receptor” indicates LBD-TRX, with the LBD exemplified by a genereic nuclear receptor (NR) LBD with bound ligand (L), and the TRX domain represented by the VP16 acidic activation domain (VP16). “Coactivator” indicates a CA-TRX, with exemplary CA species being a portion of the SRC-1 protein, a portion of the CBP protein, or isolated LCD sequences from those proteins, the TRX domain is exemplified as the Gal4 DNA binding domain (DBD). “Corepressor” indicates a CR-TRX, with exemplary CR species being the interacting domains (ID1 or ID2) from SMRT or NcoR fused to the TRX domain as exemplified by Gal4 DNA binding domain (DBD). The reporter polynucleotide is exemplified as a UAS-TK-luciferase reporter containing binding sites for Gal4 DBD. CHO cells were triple transfected with these constructs and hormone added.
“Receptor” indicates LBD-TRX, with the LBD exemplified by a genereic nuclear receptor (NR) LBD with bound ligand (L), and the TRX domain represented by the VP16 acidic activation domain (VP16). “Coactivator” indicates a CA-TRX, with exemplary CA species being a portion of the SRC-1 protein, a portion of the CBP protein, or isolated LCD sequences from those proteins, the TRX domain is exemplified as the Gal4 DNA binding domain (DBD). […]

N[C@@H](Cc1cc(I)c(Oc2ccc(O)c(I)c2)c(I)c1)C(=O)O [T3, triiodothyronine]
reporter (luciferase) response: dose-dependent
